Reference: the NIST ThermoML archive (doi:10.1016/j.fluid.2006.03.009)
Numbers after ± are expanded uncertainties.

Conditions: Liquid

| vapor or sublimation pressure (273.15 K) [kPa] | vapor or sublimation pressure (278.15 K) [kPa] | vapor or sublimation pressure (283.15 K) [kPa] | vapor or sublimation pressure (293.15 K) [kPa] | vapor or sublimation pressure (303.15 K) [kPa] | vapor or sublimation pressure (313.15 K) [kPa] | SMILES |
| --- | --- | --- | --- | --- | --- | --- |
| 474 ± 2.6 | 550.8 ± 2.8 | 636 ± 2.9 | 836.2 ± 3.4 | 1077.6 ± 4 | 1368 ± 4.7 | CCC [propane] |
| 586 ± 2.8 | 678.5 ± 3 | 780.8 ± 3.3 | 1019 ± 3.8 | 1307.6 ± 4.6 | 1652.2 ± 5.6 | C=CC [propene] |
